This assay addresses ubiquitin (Ub) (Homo sapiens, UniProt P0CG47). Briefly: Fluorescence polarization. Format: binding. The following applies: comparison with native UIM-1 peptide 12.

From publication PMC11385044 (Chemical Science, 2024) come the findings set out here.

*1 amine or outer side, *2 acyl side, *3 side chain or, on linkers, in order; H or OH if unused. Where a SMILES comes first, the peptide text is derived from it. Bridges are numbered along the chain shown (N, C = ends). Roman numbers before positions name the chains, in order. The star is where a group is joined. FITC = O=C1OC2(c3ccc(O)cc3Oc3cc(O)ccc32)c2ccc(NC(=S)*)cc21; X1 = O=C(CCc1cn(CC(=O)[*:2])nn1)[*:1]

Consider `CC[C@H](C)[C@H](NC(=O)[C@H](C)NC(=O)[C@@H](NC(=O)[C@H](CCC(=O)O)NC(=O)[C@@H](NC(=O)[C@H](CCC(=O)O)NC(=O)[C@H](CC(C)C)NC(=O)[C@H](CCC(=O)O)NC(=O)[C@H](CCC(=O)O)NC(=O)[C@@H](NC(=O)[C@H](CCC(=O)O)NC(=O)[C@H](CCC(N)=O)NC(=O)[C@H](CCC(=O)O)NC(=O)CCc1cn(CC(=O)N[C@@H](CCCCN)C(=O)N[C@@H](CCC(N)=O)C(=O)N[C@@H](CCCCN)C(=O)N[C@H](C(=O)N[C@@H](C)C(=O)N[C@@H](C)C(=O)N[C@@H](CC(C)C)C(=O)N[C@@H](CCCCN)C(=O)N[C@@H](CCCCNC(=S)Nc2ccc3c(c2)C(=O)OC32c3ccc(O)cc3Oc3cc(O)ccc32)C(=O)N[C@@H](CCCCN)C(=O)N[C@H](C(=O)N[C@@H](C)C(=O)N[C@@H](C)C(=O)N[C@@H](CC(C)C)C(=O)N[C@@H](CCCCN)C(=O)N[C@@H](CCC(N)=O)C(=O)N[C@@H](CCCCN)C(=O)N[C@H](C(=O)N[C@@H](CCC(N)=O)C(=O)NCC(N)=O)[C@@H](C)CC)[C@@H](C)CC)[C@@H](C)CC)nn1)[C@@H](C)CC)[C@@H](C)CC)[C@@H](C)CC)C(=O)N[C@@H](CC(C)C)C(=O)N[C@@H](CC(C)C)C(=O)N[C@@H](CO)C(=O)N[C@@H](CCC(=O)O)C(=O)N[C@H](C(=O)N[C@@H](CCC(=O)O)C(=O)NCC(N)=O)[C@@H](C)CC` [Peptide 10] (I: EQEIEELEIEIAILLSEIEG-NH2 / II: KQKIAALKK(FITC)KIAALKQKIQG-NH2; linker I:N-II:N via X1), for which the “Ub binding relative to native UIM-1 peptide” value is listed as “binds more strongly than the native UIM-1 peptide”.
